Results taken from patent KR20180000079A, “Kahweol을 포함하는 항비만 조성물” (경북대학교 산학협력단, priority 2016, dated 2018).

Assays:
Assay type in all cases: cell-based, mouse
[1] = test system: C/EBPα; assay: RT-PCR, C/EBPα mRNA expression in 3T3-L1 cells; settings: 40 μM
[2] = test system: PPARγ; assay: RT-PCR, PPARγ mRNA expression in 3T3-L1 cells; settings: 40 μM
[3] = test system: PPARγ; assay: Western blot, PPARγ protein expression in 3T3-L1 adipocytes; settings: 40 μM
[4] = test system: C/EBPα; assay: Western blot, C/EBPα protein expression in 3T3-L1 adipocytes; settings: 40 μM
[5] = test system: 3T3-L1 adipocytes [3T3-L1 지방세포]; assay: Triglyceride (TG) quantification in 3T3-L1 cells (colorimetric kit)
[6] = test system: 3T3-L1 preadipocytes [3T3-L1 전구 지방세포]; assay: MTT assay, cytotoxicity in 3T3-L1 preadipocytes; settings: 3T3-L1 cells, 4 or 40 μM, 24 or 48 h
[7] = test system: 3T3-L1 adipocytes [3T3-L1 지방세포]; assay: Oil Red O staining: differentiation and lipid accumulation in 3T3-L1 cells
[8] = test system: adiponectin [아디포넥틴]; assay: RT-PCR, adiponectin mRNA expression in 3T3-L1 cells; settings: 40 μM
[9] = test system: adiponectin [아디포넥틴]; assay: Western blot, adiponectin protein expression in 3T3-L1 adipocytes; settings: 40 μM

C[C@@]12C=Cc3occc3[C@H]1CC[C@@]13C[C@@H](CC[C@H]12)[C@@](O)(CO)C3 [Kahweol]
C/EBPα mRNA level [1]: 현저히 감소
PPARγ mRNA level [2]: 현저히 감소
PPARγ protein expression [3]: 억제됨
C/EBPα protein expression [4]: 억제됨
TG formation [5]: 억제함
TG formation inhibitory activity compared with positive control ([5]; 40 μM): 양성 대조군 보다 우수한
inhibition at 40 µM ([5]; Mus musculus, 40 μM, read-out: decrease of intracellular TG level): 43.3%
cytotoxic effect [6]: 세포 독성 효과를 보이지 않았다
differentiation of 3T3-L1 cells ([7]; 40 μM, 8 days): 분화가 억제됨
cell morphology ([7]; 40 μM, 8 days, similar to preadipocytes (Fig. 3A)): 소형 스핀들-형상 형태
lipid accumulation inhibitory activity compared with positive control ([7]; 3T3-L1 cells, 40 μM): 양성 대조군 보다 우수한
intracellular lipid accumulation ([7]; 3T3-L1 cells, Oil Red O): 억제함
adiponectin mRNA level [8]: 감소
adiponectin protein expression [9]: 억제됨
